Article PMC9837035 (Nature Communications, 2023)
Several values for one entry are separate records, joined by “and”; a condition that tells them apart may be missing. Identical values can stand only once. Like-named read-outs stand apart in the source and are kept apart here.

How the values were obtained:
ASH1L = target: T1, ASH1L (Homo sapiens, UniProt Q9NR48); assay: Radioisotope-based methyltransferase assay (selectivity); assay type: biochemical; details: ASH1L, read-out: IC50
T1 construct: purchased Reaction Biology

MLL4 [1] = assay: as above; details: MLL4, 1 μM SAM
Chain of MLL4 (Q9UMN6 2490-2715): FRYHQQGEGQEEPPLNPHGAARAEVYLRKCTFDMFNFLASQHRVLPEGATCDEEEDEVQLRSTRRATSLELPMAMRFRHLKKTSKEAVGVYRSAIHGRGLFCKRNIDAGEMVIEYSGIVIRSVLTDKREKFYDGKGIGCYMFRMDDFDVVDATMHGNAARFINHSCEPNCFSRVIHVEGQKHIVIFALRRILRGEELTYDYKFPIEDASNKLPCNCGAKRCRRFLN
Chain of MLL4 (Q9UBL3 whole entry, further chain): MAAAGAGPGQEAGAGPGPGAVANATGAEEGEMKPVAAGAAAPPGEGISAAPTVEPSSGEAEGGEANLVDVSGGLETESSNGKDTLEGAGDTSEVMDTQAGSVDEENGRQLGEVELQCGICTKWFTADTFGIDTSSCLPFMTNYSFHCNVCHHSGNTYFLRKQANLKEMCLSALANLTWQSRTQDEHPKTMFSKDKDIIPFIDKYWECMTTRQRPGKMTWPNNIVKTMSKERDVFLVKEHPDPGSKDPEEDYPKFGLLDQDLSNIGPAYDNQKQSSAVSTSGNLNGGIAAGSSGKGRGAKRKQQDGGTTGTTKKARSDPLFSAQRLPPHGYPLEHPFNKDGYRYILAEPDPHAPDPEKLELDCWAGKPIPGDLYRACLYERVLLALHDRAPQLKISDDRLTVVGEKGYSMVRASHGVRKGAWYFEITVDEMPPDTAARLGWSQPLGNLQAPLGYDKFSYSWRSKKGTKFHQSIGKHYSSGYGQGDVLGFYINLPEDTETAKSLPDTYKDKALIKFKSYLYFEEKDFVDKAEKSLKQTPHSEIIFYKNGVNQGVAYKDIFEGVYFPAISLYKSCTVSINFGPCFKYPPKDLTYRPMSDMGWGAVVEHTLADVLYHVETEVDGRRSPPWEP
Chain of MLL4 (Q9C005 whole entry, further chain): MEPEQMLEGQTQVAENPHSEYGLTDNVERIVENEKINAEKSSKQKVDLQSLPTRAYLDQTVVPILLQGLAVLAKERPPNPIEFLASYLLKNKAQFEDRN
Chain of MLL4 (Q15291 whole entry, further chain): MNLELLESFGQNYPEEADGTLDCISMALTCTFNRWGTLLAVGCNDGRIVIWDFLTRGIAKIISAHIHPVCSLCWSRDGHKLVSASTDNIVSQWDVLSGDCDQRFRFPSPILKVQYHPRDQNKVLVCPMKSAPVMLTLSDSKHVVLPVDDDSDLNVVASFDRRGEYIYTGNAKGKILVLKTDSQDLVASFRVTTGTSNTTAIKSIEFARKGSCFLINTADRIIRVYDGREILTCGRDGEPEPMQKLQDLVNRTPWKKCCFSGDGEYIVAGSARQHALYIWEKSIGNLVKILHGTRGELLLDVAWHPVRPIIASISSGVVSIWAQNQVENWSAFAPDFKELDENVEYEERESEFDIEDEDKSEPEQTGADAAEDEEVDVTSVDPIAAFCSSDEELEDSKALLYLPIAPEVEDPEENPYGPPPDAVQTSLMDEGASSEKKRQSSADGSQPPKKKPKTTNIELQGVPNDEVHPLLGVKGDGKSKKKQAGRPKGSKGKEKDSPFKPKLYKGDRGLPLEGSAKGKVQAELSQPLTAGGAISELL

[2] = system: α-, β-, εy-, and βh1-globin mRNA in peripheral blood; assay: Globin mRNA levels in peripheral blood of treated mice; assay type: in vivo
Protocol: Total cellular RNA was prepared using the Tissue Total RNA Mini Kit (FAVORGEN), and cDNA was synthesized using ReverTra Ace Master Mix (TOYOBO). Expression of target genes was analyzed using THUNDERBIRD SYBR qPCR Mix (TOYOBO) on a CFX Connect Real Time System (Bio-Rad). The qPCR data were acquired on CFX Maestro (Bio-Rad). Primers are listed in Supplementary Table 10. GAPDH was used as a reference. Primers were purchased from INTEGRATED DNA TECHNOLOGIES or FASMAC.
C57BL/6 mice (6–8 weeks old, female, six mice/group) were purchased from Tokyo Laboratory Animals Science. The mice were fed a standard laboratory diet and housed in a temperature-controlled room under specific pathogen-free conditions. A combination anesthetic was prepared with 0.3 mg/kg medetomidine, 4.0 mg/kg midazolam, and 5.0 mg/kg butorphanol.
(§1) The dosing solution contained 15% DMSO, 17.5% Cremophor EL, 8.75% EtOH, 8.75% HCO-40, and 50% PBS. Blood samples were collected once a week by Retro Orbital Sampling (75 μL Calibrated Micropipette; Drummond Scientific Company) during isoflurane anesthesia. Blood RNA was extracted using NucleoSpin RNA Blood (Takara Bio Inc.). The weight of each mouse was measured every 3 or 4 days.

[3] = system: G9a and GLP in HUDEP-2 cells; assay: Western blotting of G9a and GLP levels in HUDEP-2 cells; assay type: cell-based, human
Protocol: Preparation of cell lysates and western blotting were performed as described previously. Protein from cells lysates in lysis buffer (50 mM Tris-HCl (pH 7.5), 150 mM NaCl, 5 mM EDTA, 0.1% NP-40, 1 mM dithiothreitol) were separated by sodium dodecyl sulfate–polyacrylamide gel electrophoresis (SDS-PAGE) and transferred to a polyvinylidene difluoride (PVDF) membrane (Millipore) by electroblotting. The membranes incubated with primary antibodies overnight at 4 °C and secondary antibodies for 1 h at room temperature. The immune complexes were detected with the Immobilon Western Chemiluminescent HRP Substrate (Millipore). Luminescence was analyzed on a FUSION SOLO S (Vilber). Western blot bands were visualized using Evolution Capt software (M&S Instruments Inc.). Primary antibodies used were anti-G9a (1:1000, CST, #3306), anti–α-tubulin (1:5000, Abcam, ab18251), anti-H3K9me2 (1:3000, Abcam, ab1220), anti-H3 (1:5000, Abcam, ab1791), anti-H3K27me3 (1:3000, Sigma, 07-449), anti-GLP (1:1000, CST, #35005), anti-FLAG (100 ng/ml, Fujifilm, 01422383), anti-His (1:5000, MBL, PM032), anti-BCL11A (1:1000, abcam, ab19487), anti-ZBTB7A (1:1000, CST, #50565), anti-CHD3 (1:1000, Novus Biologicals, NB100-60412), and anti-CHD4 (1:1000, abcam, ab240640). Uncropped scans of all of the blots are available in Source Data file.

[4] = Body weight of mice during 5-week administration; assay type: in vivo
Protocol: as §1

MLL4 [5] = target: MLL4 (Homo sapiens, UniProt Q9UMN6); assay: Radioisotope-based methyltransferase assay (selectivity); details: MLL4, 1 μM SAM
Chain of MLL4 (Homo sapiens, UniProt Q9UMN6) (Q9UMN6 2490-2715): as the sequence (Q9UMN6 2490-2715) above
Chain of MLL4 (Homo sapiens, UniProt Q9UMN6) (Q9UBL3 whole entry, further chain): as the sequence (Q9UBL3 whole entry, further chain) above
Chain of MLL4 (Homo sapiens, UniProt Q9UMN6) (Q9C005 whole entry, further chain): as the sequence (Q9C005 whole entry, further chain) above
Chain of MLL4 (Homo sapiens, UniProt Q9UMN6) (Q15291 whole entry, further chain): as the sequence (Q15291 whole entry, further chain) above

## Cc1c(C(=O)NC(CCC2CC2)C(=O)Nc2ccc(C#N)cc2)[nH]c2c1C(=O)CC(C)(C)C2 (stereo not drawn) [RK-701]
ASH1L; 1 μM SAM
  IC50: 79.4 µM
ASH1L; RK-701 in duplicate
  IC50: 80.4 µM and 78.4 µM
MLL4 [1]
  IC50: > 100 µM
[2]
  mouse embryonic εy-globin: selectively increased
[3]
  expression levels of G9a and GLP: did not affect
[4]; 20 mg/kg i.p., Day 0
  body weight of individual mice: 17.8 g and 17.5 g and 16.8 g and 16.2 g and 16.4 g
[4]; 20 mg/kg i.p., Day 4
  body weight of individual mice: 18.5 g and 17.7 g and 17.3 g and 17.2 g and 16.8 g and 17.4 g
[4]; 20 mg/kg i.p., Day 8
  body weight of individual mice: 18.4 g and 18.1 g and 17.4 g and 17.7 g and 16.7 g and 17.8 g
[4]; 20 mg/kg i.p., Day 11
  body weight of individual mice: 18.6 g and 18.2 g and 17.5 g and 17.6 g and 16.5 g and 17.1 g
[4]; 20 mg/kg i.p., Day 15
  body weight of individual mice: 18.7 g and 18.1 g and 17.7 g and 18.2 g and 16.6 g
[4]; 20 mg/kg i.p., Day 18
  body weight of individual mice: 19.3 g and 18.2 g and 17.8 g and 16.6 g
[4]; 20 mg/kg i.p., Day 22
  body weight of individual mice: 18 g and 19 g and 18.5 g and 17 g and 18.6 g
[4]; 20 mg/kg i.p., Day 25
  body weight of individual mice: 20.2 g and 19.5 g and 17.7 g and 18.3 g and 17.8 g and 18.8 g
[4]; 20 mg/kg i.p., Day 29
  body weight of individual mice: 20.4 g and 18.2 g and 19.8 g and 18.7 g and 16 g and 18.5 g
[4]; 20 mg/kg i.p., Day 32
  body weight of individual mice: 19.9 g and 20 g and 19 g and 19.7 g and 19.6 g
[4]; 50 mg/kg i.p., Day 0
  body weight of individual mice: 14.7 g and 16.5 g and 17.3 g and 16.4 g and 17.4 g
[4]; 50 mg/kg i.p., Day 4
  body weight of individual mice: 15.3 g and 18.3 g and 17.7 g and 17.3 g and 17.8 g
[4]; 50 mg/kg i.p., Day 8
  body weight of individual mice: 14.8 g and 17.7 g and 18.3 g and 18.1 g
[4]; 50 mg/kg i.p., Day 11
  body weight of individual mice: 16 g and 18 g and 18.7 g and 17.9 g and 18.5 g
[4]; 50 mg/kg i.p., Day 15
  body weight of individual mice: 15 g and 18 g and 19.1 g and 17.9 g and 18.5 g
[4]; 50 mg/kg i.p., Day 18
  body weight of individual mice: 15.1 g and 18.4 g and 19.3 g and 19.5 g
[4]; 50 mg/kg i.p., Day 22
  body weight of individual mice: 15.5 g and 18.9 g and 19.7 g and 19.8 g
[4]; 50 mg/kg i.p., Day 25
  body weight of individual mice: 16.7 g and 19.1 g and 20.6 g and 19.9 g and 20.4 g
[4]; 50 mg/kg i.p., Day 29
  body weight of individual mice: 16.3 g and 18.4 g and 19.6 g and 19 g and 20 g
[4]; 50 mg/kg i.p., Day 32
  body weight of individual mice: 16.7 g and 19.5 g and 21.2 g and 20 g
[4]; five-week continuous administration
  mouse body weights: no effect on mouse body weights

## Nc1ncnc2c1ncn2[C@@H]1O[C@H](CSCC[C@H](N)C(=O)O)[C@@H](O)[C@H]1O [SAH, S-(5'-Adenosyl)-L-homocysteine, reference compound]
MLL4 [5]
  IC50: 1.1 µM
